{"source": "ChEMBL document CHEMBL3046928", "about": "“Skimmianine, a furoquinoline alkaloid from Zanthoxylum nitidum as a potential acetylcholinesterase inhibitor” (Med Chem Res, 2012)", "key": {"[1]": {"target": "T1, Acetylcholinesterase (Homo sapiens, UniProt P22303)", "T1 sequence (P22303 whole entry)": "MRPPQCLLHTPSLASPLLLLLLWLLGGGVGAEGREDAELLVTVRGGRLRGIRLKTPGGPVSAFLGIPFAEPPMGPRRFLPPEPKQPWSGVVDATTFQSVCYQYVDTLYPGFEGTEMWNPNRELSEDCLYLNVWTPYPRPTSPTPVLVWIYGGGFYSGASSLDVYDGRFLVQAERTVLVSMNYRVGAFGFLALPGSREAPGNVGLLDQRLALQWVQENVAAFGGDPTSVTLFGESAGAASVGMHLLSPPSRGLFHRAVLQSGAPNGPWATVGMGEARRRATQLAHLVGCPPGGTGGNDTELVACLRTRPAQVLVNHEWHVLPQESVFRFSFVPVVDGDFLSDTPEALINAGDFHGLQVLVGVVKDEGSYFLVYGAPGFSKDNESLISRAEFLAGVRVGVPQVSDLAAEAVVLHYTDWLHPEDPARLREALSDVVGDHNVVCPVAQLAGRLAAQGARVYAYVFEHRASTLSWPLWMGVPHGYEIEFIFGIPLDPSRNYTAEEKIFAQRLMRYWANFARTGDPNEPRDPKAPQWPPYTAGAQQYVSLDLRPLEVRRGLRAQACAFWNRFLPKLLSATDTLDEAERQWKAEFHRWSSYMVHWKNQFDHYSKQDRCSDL"}, "[2]": {"target": "T1, Acetylcholinesterase", "conditions": "at 0.1 mg/mL"}, "[3]": {"target": "T1, Acetylcholinesterase", "assay": "Inhibition of AChE (unknown origin) at 10 mg/ml after 20 min by TLC bioautographic assay"}}, "note": "Active and inactive are the calls of the source. The calls are words filed in the database; no cut-off is given here.", "data": [{"molecule": "COc1cccc2c3c(c(=O)n(C)c12)[C@@H](O)[C@H](O)C(C)(C)O3", "note": "(relative stereo) [REL-ZANTHODIOLINE]", "values": [{"measurement": "IC50", "setting": "[1]", "result": "Not Active"}, {"measurement": "inhibition", "setting": "[2]", "result": 34.4, "unit": "%"}]}, {"molecule": "COc1cc2oc(=O)ccc2c(OC)c1OC", "note": "[5,6,7-TRIMETHOXYCOUMARIN]", "values": [{"measurement": "IC50", "setting": "[1]; read-out: IC50 (converted)", "result": "> 423", "unit": "µM"}, {"measurement": "inhibition", "setting": "[2]", "result": 49.7, "unit": "%"}]}, {"molecule": "COc1c(C[C@H](C)C(C)(C)O)c(=O)n(C)c2ccccc12", "note": "[(-)-(S)-EDULININE]", "values": [{"measurement": "IC50", "setting": "[1]", "result": "Not Active"}, {"measurement": "inhibition", "setting": "[2]", "result": 19.4, "unit": "%"}]}, {"molecule": "COc1c2ccccc2nc2occc12", "note": "[DICTAMNINE]", "values": [{"measurement": "IC50", "setting": "[1]", "result": "Not Active"}, {"measurement": "inhibition", "setting": "[2]", "result": 12.6, "unit": "%"}]}, {"molecule": "COc1cc(=O)[nH]c2c(OC)cccc12", "note": "[EDULITINE]", "values": [{"measurement": "IC50", "setting": "[1]; read-out: IC50 (converted)", "result": "> 487", "unit": "µM"}, {"measurement": "inhibition", "setting": "[2]", "result": 45.1, "unit": "%"}]}, {"molecule": "COc1c2ccoc2nc2c(OC)cccc12", "note": "[GAMMA-FAGARINE]", "values": [{"measurement": "IC50", "setting": "[1]", "result": "Not Active"}, {"measurement": "inhibition", "setting": "[2]", "result": 24.3, "unit": "%"}]}, {"molecule": "COc1c2[nH]c3occc3c(OC)c-2ccc1=O", "note": "[HAPLOPINE]", "values": [{"measurement": "IC50", "setting": "[1]; read-out: IC50 (converted)", "result": "> 408", "unit": "µM"}, {"measurement": "inhibition", "setting": "[2]", "result": 51.9, "unit": "%"}]}, {"molecule": "COc1ccc(C(=O)[C@@H]2CO[C@H](c3ccc4c(c3)OCO4)[C@H]2CO)cc1OC", "note": "[MAGNOLONE]", "values": [{"measurement": "IC50", "setting": "[1]", "result": "Not Active"}, {"measurement": "inhibition", "setting": "[2]", "result": 9.9, "unit": "%"}]}, {"molecule": "COc1ccc2c(OC)c3ccoc3nc2c1OC", "note": "[SKIMMIANINE]", "values": [{"measurement": "inhibition", "setting": "[3]", "result": "Active"}, {"measurement": "IC50", "setting": "[1]; read-out: IC50 (converted)", "result": 33.2, "unit": "µM"}, {"measurement": "inhibition", "setting": "[2]", "result": 91.3, "unit": "%"}]}, {"molecule": "COc1cc2oc(=O)ccc2c(OC)c1C[C@@H](O)C(C)(C)O", "note": "[TODDALOLACTONE]", "values": [{"measurement": "IC50", "setting": "[1]", "result": "Not Active"}, {"measurement": "inhibition", "setting": "[2]", "result": 33.9, "unit": "%"}]}]}
